In US12077531B2, “Imidazopyridinone compound” (KISSEI PHARMACEUTICAL CO., LTD., priority 2018, dated 2024):
pIC50: −log10 of the molar value. Like-named read-outs stand apart in the source and are kept apart here.

Columns and labels:
[1] = Rat PK study: concentration of compounds in large intestine tissue and plasma; assay type: in vivo; conditions: male, SD, 3 mg/kg oral; for Kp at 8 h: large intestine tissue / plasma, read-out: C/P: ratio of the above Colon and Plasma; for Cmax / AUC: non-fasted; for Cmax: read-out: Cmax: maximum plasma concentration of test compounds in the case of oral administration; for AUC: read-out: AUC: area under the plasma test compound concentration-time curve (converted)
Description: Test Example 3 Concentration of Compounds in Large Intestine Tissue
Test compounds (3 mg/kg/5 mL) prepared by 0.05% methylcellulose were orally administered to non-fasted rats (SD, 8-weeks-old, male, Japan SLC). Blood samples were collected from jugular vein at 0.25, 0.5, 1, 2, 4, 6 and 8 hours after the administration. Laparotomy was performed under isoflurane anesthesia and large intestine was isolated. Collected distal large intestine (about 5 cm) was cut open, and then the large intestine was washed with saline on a dish. After washing, the large intestine was minced by a small scissors. About 150 mg thereof was moved to tube. To the tube was added 100 μL of saline, the mixture was homogenized using shake master (1000 rpm×30 minutes). Samples were prepared by the addition with quadruple volume of saline as final volume. The concentrations of the test compound in large intestine tissue and plasma were measured through a quantitative analysis using liquid chromatography-mass spectrometry (LC/MS).

human PHD2184-418 = human PHD2184-418 (Homo sapiens (Human), UniProt Q9GZT9); experiment: PHD2 inhibitory test (fluorescence polarization, binding between PHD2 and HIF-1α); conditions: human PHD2184-418, FITC-labeled HIF-1α556-574, 2 μM 2-oxoglutarate, 37° C. 60 minutes
human PHD2184-418, sequence (Q9GZT9 184-418): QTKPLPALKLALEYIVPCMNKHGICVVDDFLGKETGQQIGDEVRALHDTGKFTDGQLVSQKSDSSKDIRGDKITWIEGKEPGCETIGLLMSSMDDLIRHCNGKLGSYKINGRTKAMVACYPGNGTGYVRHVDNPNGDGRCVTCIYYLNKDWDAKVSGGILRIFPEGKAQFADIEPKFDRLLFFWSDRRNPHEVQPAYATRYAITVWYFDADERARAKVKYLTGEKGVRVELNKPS
In short: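 N-His-tagged human PHD2 (residues 184–418, E. coli-expressed) was preincubated with compound, then FITC-Ahx-HIF-1α556-574 peptide was added in pH 7.4 HEPES buffer with 10 μM MnCl2 and 2 μM 2-oxoglutarate. After 60 min at 37 °C, fluorescence polarization (ex 470/em 530 nm) was read. Inhibition was calculated against compound-free wells.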

[2] = tested on: TNBS induced colitis model rat; experiment: Therapeutic effect in TNBS induced colitis model rat (intestinal permeability of FITC); assay type: in vivo; conditions: po, 72 h, 3 mg/kg orally once a day for 3 days, SD rats, mean, test compounds-free group 0, TNBS-untreated group 100, read-out: Inhibition (%): suppressive rate on the intestinal permeability
Description: Test Example 2 Therapeutic Effect in Colitis Model
(1) TNBS Induced Colitis Model Rat
SD rats: 8-weeks-old male SLC (Japan SLC) were used. Under pentobarbital anesthesia, 300 μL of TNBS (28 mg/mL) prepared by 50% ethanol was administered at a point 8 cm from anus in large intestine to cause inflammation. To the solvent-treated group was administrated 300 μL of 50% ethanol. Animals were fasted for 48 hours prior to administration of TNBS. Test compounds (3 mg/kg) prepared by 0.05% methylcellulose solution were orally administered once a day from next day, and it was administered for a total of 3 days. After administering for 3 days, 50 mg/kg FITC was orally administered at 4 hours after administration. Blood samples were collected from jugular vein under isoflurane anesthesia after 4 hours. The serum was centrifuged and fluorescence intensity was detected by PHERAstar FSX (BMG Labtech) to measure the concentration of FITC permeating into circulating blood through the mesentery. The suppressive rate on the intestinal permeability of test compounds was calculated based on the value of test compounds-free group as 0 and the value of TNBS-untreated group as 100.

[3] = large intestine tissue (distal large intestine), read-out: Colon: concentrations of the test compound in large intestine tissue after 8 hours
[4] = plasma, read-out: Plasma: plasma test compound concentration after 8 hours

SMILES | concentration at 8 h [1, 3] [ng/g] | Kp at 8 h [1] | concentration at 8 h [1, 4] [ng/mL] | Cmax ([1]; plasma) [ng/mL] | pIC50 (human PHD2184-418) | inhibition in vivo at 3 mg/kg [2] [%] | AUC ([1]; plasma) [ng·h/mL]
Cn1ccnc1CN1CC[C@H](n2c(=O)n(-c3ccc(-c4ccc(C(=O)O)cc4)c(O)c3)c3cccnc32)C1 [Example 40, (S)-2′-Hydroxy-4′-(3-(1-((1-methyl-1H-imidazol-2-yl)methyl)pyrrolidin-3-yl)-2-oxo-2,3-dihydro-1H-imidazo[4,5-b]pyridin-1-yl)-[1,1′-biphenyl]-4-carboxylic acid] | 209 | > 209 | < 1 | < 1 | 6.12 | 84 | –
O=C(O)c1ccc(-c2ccc(-n3c(=O)n([C@H]4CCN(Cc5cc(C(=O)O)ccn5)C4)c4ncccc43)cn2)cc1 [Example 46, (S)-2-((3-(1-(6-(4-Carboxyphenyl)pyridin-3-yl)-2-oxo-1,2-dihydro-3H-imidazo[4,5-b]pyridin-3-yl)pyrrolidin-1-yl)methyl)isonicotinic acid] | 174 | > 174 | < 1 | 3 | 6.82 | 63 | 5.23
O=C(O)c1ccc(-c2ccc(-n3c(=O)n([C@H]4CCN(Cc5cc(C(=O)O)ccn5)C4)c4ncccc43)cc2)cc1 [Example 43, (S)-2-((3-(1-(4′-Carboxy-[1,1′-biphenyl]-4-yl)-2-oxo-1,2-dihydro-3H-imidazo[4,5-b]pyridin-3-yl)pyrrolidin-1-yl)methyl)isonicotinic acid] | 84 | 42 | 2 | 8 | 6.70 | 59 | 35.2
Cn1ccnc1CN1CC[C@H](n2c(=O)n(-c3ccc(-c4ccc(C(=O)O)cc4)cc3)c3cccnc32)C1 [Example 47, (S)-4′-(3-(1-((1-Methyl-1H-imidazol-2-yl)methyl)pyrrolidin-3-yl)-2-oxo-2,3-dihydro-1H-imidazo[4,5-b]pyridin-1-yl)-[1,1′-biphenyl]-4-carboxylic acid] | 317 | 18 | 18 | 60 | 6.39 | 85 | 334
Cn1ccnc1CN1CC[C@H](n2c(=O)n(-c3ccc(-c4ccc(C(=O)O)cc4)nc3)c3cccnc32)C1 [Example 41, (S)-4-(5-(3-(1-((1-Methyl-1H-imidazol-2-yl)methyl)pyrrolidin-3-yl)-2-oxo-2,3-dihydro-1H-imidazo[4,5-b]pyridin-1-yl)pyridin-2-yl)benzoic acid] | – | – | – | – | 5.84 | 74 | –
Cn1c(C(=O)O)cnc1CN1CC[C@H](n2c(=O)n(-c3ccc(-c4ccc(O)cc4)cc3)c3cccnc32)C1 [Example 82, (S)-2-((3-(1-(4′-Hydroxy-[1,1′-biphenyl]-4-yl)-2-oxo-1,2-dihydro-3H-imidazo[4,5-b]pyridin-3-yl)pyrrolidin-1-yl)methyl)-1-methyl-1H-imidazole-5-carboxylic acid] | – | – | – | – | 6.89 | 96 | –
Cn1c(C(=O)O)cnc1CN1CC[C@H](n2c(=O)n(-c3ccc(-c4ccc(C(=O)O)cc4)cc3O)c3cccnc32)C1 [Example 49, (S)-2-((3-(1-(4′-Carboxy-3-hydroxy-[1,1′-biphenyl]-4-yl)-2-oxo-1,2-dihydro-3H-imidazo[4,5-b]pyridin-3-yl)pyrrolidin-1-yl)methyl)-1-methyl-1H-imidazole-5-carboxylic acid] | 201 | > 201 | < 1 | 4 | 6.92 | 82 | 15
O=C(O)c1ccc(-c2ccc(-n3c(=O)n([C@H]4CCN(Cc5cc(C(=O)O)ccn5)C4)c4ncccc43)cc2O)cc1 [Example 45, (S)-2-((3-(1-(4′-Carboxy-2-hydroxy-[1,1′-biphenyl]-4-yl)-2-oxo-1,2-dihydro-3H-imidazo[4,5-b]pyridin-3-yl)pyrrolidin-1-yl)methyl)isonicotinic acid] | 87 | > 87 | < 1 | 2 | 6.57 | 51 | 6.68
Cn1c(C(=O)O)cnc1CN1CC[C@H](n2c(=O)n(-c3ccc(-c4ccc(C(=O)O)cc4)c(O)c3)c3cccnc32)C1 [Example 84, (S)-2-((3-(1-(4′-Carboxy-2-hydroxy-[1,1′-biphenyl]-4-yl)-2-oxo-1,2-dihydro-3H-imidazo[4,5-b]pyridin-3-yl)pyrrolidin-1-yl)methyl)-1-methyl-1H-imidazole-5-carboxylic acid] | 99 | > 99 | < 1 | 1 | 6.82 | 117 | 1.27
Cn1c(C(=O)O)cnc1CN1CC[C@H](n2c(=O)n(-c3ccc(-c4ccc(C(=O)O)cc4)cc3)c3cccnc32)C1 [Example 83, (S)-2-((3-(1-(4′-Carboxy-[1,1′-biphenyl]-4-yl)-2-oxo-1,2-dihydro-3H-imidazo[4,5-b]pyridin-3-yl)pyrrolidin-1-yl)methyl)-1-methyl-1H-imidazole-5-carboxylic acid] | 54 | > 54 | < 1 | 5 | 6.85 | 85 | 21.5
Cn1c(C(=O)O)cnc1CN1CC[C@H](n2c(=O)n(-c3ccc(-c4ccc(C(=O)O)cc4)nc3)c3cccnc32)C1 [Example 85, (S)-2-((3-(1-(6-(4-Carboxyphenyl)pyridin-3-yl)-2-oxo-1,2-dihydro-3H-imidazo[4,5-b]pyridin-3-yl)pyrrolidin-1-yl)methyl)-1-methyl-1H-imidazole-5-carboxylic acid] | 164 | > 164 | < 1 | – | – | 101 | –
Cn1ccnc1CN1CC[C@H](n2c(=O)n(-c3ccc(-c4ccc(C(=O)O)cc4)cc3O)c3cccnc32)C1 [Example 39, (S)-3′-Hydroxy-4′-(3-(1-((1-methyl-1H-imidazol-2-yl)methyl)pyrrolidin-3-yl)-2-oxo-2,3-dihydro-1H-imidazo[4,5-b]pyridin-1-yl)-[1,1′-biphenyl]-4-carboxylic acid] | 214 | 71 | 3 | 7 | 6.47 | 95 | 34.8
